Measured values reported in PMC9794833, “Ligand recognition and activation of neuromedin U receptor 2” (Nature Communications, 2022).
Several values for one entry are separate records, joined by “and”; a condition that tells them apart may be missing. Identical values can stand only once. Like-named read-outs stand apart in the source and are kept apart here. Where no end group is shown, it is not given here.

Experiments:
Type in all cases: cell-based
NMU2 = target: T1, NMU2 (Homo sapiens, UniProt Q9GZQ4); assay: TRUPATH Gαi1βγ biosensor assay, WT NMU2; details: for NmU-25–induced G protein activation of NMU2: single replicates, in % (unit assumed)
T1 construct: HA signal peptide (N); expressed in transfected cells; host or cells: HEK 293F
T1 sequence (Q9GZQ4 whole entry): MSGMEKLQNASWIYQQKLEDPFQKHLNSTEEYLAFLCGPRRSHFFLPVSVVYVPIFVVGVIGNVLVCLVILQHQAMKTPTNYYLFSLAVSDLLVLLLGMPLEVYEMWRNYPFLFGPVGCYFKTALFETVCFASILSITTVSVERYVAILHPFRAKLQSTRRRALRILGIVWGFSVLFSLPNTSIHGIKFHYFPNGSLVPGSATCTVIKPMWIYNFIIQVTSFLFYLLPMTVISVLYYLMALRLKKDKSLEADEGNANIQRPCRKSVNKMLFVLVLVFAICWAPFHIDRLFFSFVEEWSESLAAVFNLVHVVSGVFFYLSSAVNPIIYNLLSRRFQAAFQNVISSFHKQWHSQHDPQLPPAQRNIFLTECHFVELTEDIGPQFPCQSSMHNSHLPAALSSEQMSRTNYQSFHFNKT
Protocol: (§1) The plasmids of Gαi1, Gβ3, and Gγ9 used for the TRUPATH assay were purchased from Addgene (TRUPATH Kit, #1000000163). NMU2 constructs of WT and mutants were constructed into a PTT5 vector (Invitrogen) with an N-terminal HA signal peptide followed by a Flag tag. HEK 293F cells were transiently transfected with WT or mutants of NMU2, Gαi1, Gβ3, and Gγ9 at an […] ratio of 4:1:1:1 with a total of 3500 ng plasmid DNA using a transfection reagent (PEI MAX 2000, Polysciences) and cultivated at 37 °C with 5 % CO2. Cells were collected after 48-h transfection. The expression level of the receptor was measured by incubating 10 μl cells with 15 μl TBS buffer supplemented with 4% bovine serum albumin, 20% (v/v) viability staining solution7-AAD (Invitrogen, Cat#00-6993-50), and ANTI-FLAG M2-FITC antibody (Sigma, F4049; 1:100 diluted by TBS) at 4 °C for 20 min. After incubation, 175 μl TBS buffer was added, and the fluorescence signal on the cell surface was detected by an FCM (flow cytometry) reader (Millipore). The cells were diluted with 1× HBSS (Hank’s balanced salt solution) balanced buffer supplemented with 25 mM HEPES, pH 7.4, and seeded onto the 96-well opaque cell culture plates (Beyotime) at a density of 18,000 cells per well by 60 μl. Freshly prepared 50 μM coelenterazine 400a (Nanolight Technologies) was added into the well by 10 μl. After a 5 min equilibration time in the darkness, plates were then read in a Synerg^TM H1 microplate reader (BioTek) with excitation at 395 nm and emission at 410 and 515 nm by serially three times. Then, 30 μl of 3.3× agonists were added into the wells with a gradient final concentration from 10^−4–10^−13 M. Plates were read immediately again by serially five times. Data were processed and analyzed following the method in the literature by using GraphPad Prism 8.0.

NMU2 H285A = target: T2, NMU2 H285A (Homo sapiens, UniProt Q9GZQ4, H285A); assay: IP accumulation assay, NMU2 mutant H285A; details: IP accumulation
T2 construct: HA signal peptide (N); expressed in transfected cells; host or cells: HEK 293F, transient transfection, PTT5 vector
T2 sequence (Q9GZQ4 whole entry H285A): as the sequence (Q9GZQ4 whole entry) above, with H285A counted along it
Protocol: (§2) NMU2 constructs of WT and mutants were constructed into PTT5 vector (Invitrogen), as mentioned above. HEK 293F cells were transiently transfected with WT or mutants with total of 2000 ng plasmid DNA using transfection reagent (PEI MAX 2000, Polysciences) and cultivated at 37 °C with 5% CO2. Cells were collected after 48-h transfection. IP accumulation was tested by IP-One Gq assay kit (Cisbio Bioassays, 62IPAPEJ) following the instruction manual. In general, cells were resuspended with 1× HBSS buffer containing 20 mM LiCl (stimulation buffer) and seeded into the white 384-well microplates (Proxi Plate^TM-384 Plus, PerkinElmer) with a density of 20,000 per well. Cells were preincubated with 10^−5 M R-PSOP (provided by Boehringer Ingelheim company, Germany) and gradient concentration from 10^−4 to 10^−11 M of NMU-25 or gradient concentration 10^−4 to 10^−11 M of NMU-25 alone in stimulation buffer at 37 °C for 90 min. The cryptate-labeled anti-IP1 monoclonal antibody and d2-labeled IP1 were diluted with lysis & detection buffer (1:20) and added to each well by 3 μl, respectively. The plates were incubated at room temperature for 60 minutes and then read in a Synerg^TM H1 microplate reader (BioTek) with excitation at 330 nm and emission at 620 and 665 nm. The IP1 production was calculated by a standard dose–response curve and analyzed by GraphPad Prism 8.0.

NMU2 F131L = target: T3, NMU2 F131L (Homo sapiens, UniProt Q9GZQ4, F131L); assay: IP accumulation assay, NMU2 mutant F131L; details: IP accumulation
T3 construct: HA signal peptide (N); expressed in transfected cells; host or cells: HEK 293F, transient transfection, PTT5 vector
T3 sequence (Q9GZQ4 whole entry F131L): as the sequence (Q9GZQ4 whole entry) above, with F131L counted along it
Protocol: as §2

NMU2 R288A = target: T4, NMU2 R288A (Homo sapiens, UniProt Q9GZQ4, R288A); assay: IP accumulation assay, NMU2 mutant R288A
T4 construct: HA signal peptide (N); expressed in transfected cells; host or cells: HEK 293F
T4 sequence (Q9GZQ4 whole entry R288A): as the sequence (Q9GZQ4 whole entry) above, with R288A counted along it
Protocol: as §2

NMU2 F316A = target: T5, NMU2 F316A (Homo sapiens, UniProt Q9GZQ4, F316A); assay: TRUPATH assay, NMU2 mutant F316A
T5 construct: HA signal peptide (N); expressed in transfected cells; host or cells: HEK 293F
T5 sequence (Q9GZQ4 whole entry F316A): as the sequence (Q9GZQ4 whole entry) above, with F316A counted along it
Protocol: as §1

[1] = read-out: pEC50±SEM, NmU-25 alone (converted)

With FRVDEEFQSPFASQSRGYFLFRPRN-NH2 [NmU-25] the “potency on Gi1, Gq and G11 signaling pathways (in words)” value (NMU2; TRUPATH, peer review file) was “highest potency by coupling Gi1”, the “EC50 ratio EC50(mutant)/EC50(WT)” value (NMU2; WT) was 1 and the “Span (window between Emax and minimal agonist response)” value (NMU2; WT) was 100±5 % of WT. The “NmU-25–induced G protein activation of NMU2” value (NMU2; WT, Log [NmU-25] M -4) was 96.1513 and 120.034 and 131.645 and 132.135 and 112.945 and 100.303 and 111.674 and 103.511, the “NmU-25–induced G protein activation of NMU2” value (NMU2; WT, Log [NmU-25] M -5) was 94.5176 and 100.381 and 95.0326 and the “NmU-25–induced G protein activation of NMU2” value (NMU2; WT, Log [NmU-25] M -8) was 14.7563 and 14.6245 and 25.1777 and 27.4903 and 32.4994 and 60.5946 and 16.3263 and -20.6053 and 85.0469 and -9.5497 and 77.5389 and 54.5579 and 12.0114. For the same substance, the “NmU-25–induced G protein activation of NMU2” value (NMU2; WT, Log [NmU-25] M -9) was 14.8034 and 2.989 and 12.9021 and 10.3696 and 7.38 and -3.464 and 27.6247 and 0.6791 and -7.166 and 14.4877 and 22.3774 and 22.0623 and -4.444, the “NmU-25–induced G protein activation of NMU2” value (NMU2; WT, Log [NmU-25] M -10) was -1.975 and -9.668 and -7.55 and 11.1071 and -8.093 and -25.3752 and 0.6481 and -23.592 and -13.8096 and 16.7093 and 3.342 and 8.321 and 30.8279 and the “NmU-25–induced G protein activation of NMU2” value (NMU2; WT, Log [NmU-25] M -11) was -12.488 and 4.703 and -8.667 and -24.4881 and 6.542 and 34.4845 and -19.0587 and 46.905 and 31.0606 and -18.1089 and -17.8891 and -27.6836. The EC50 (NMU2; WT, agonist-induced G protein activation, HEK 293F, read-out: EC50) was 34 nM, the EC50 (NMU2; WT, earlier manuscript version quoted in peer review file, read-out: EC50) was 37 nM and the EC50 (NMU2; WT, read-out: pEC50 mean±SEM (converted)) was 34.7 nM. For the same substance, the EC50 (NMU2 H285A; read-out: EC50, NmU-25 alone) was 214 nM, the EC50 (NMU2 H285A; [1]) was 214 nM and the EC50 (NMU2 F131L; read-out: EC50, NmU-25 alone) was 11 nM. For the same substance, the EC50 (NMU2 F131L; [1]) was 10.7 nM, the “NmU-25-induced IP accumulation (in words)” value (NMU2 R288A) was “totally eliminated” and the “EC50 ratio EC50(mutant)/EC50(WT)” value (NMU2 F316A) was 39. For the same substance, the “G protein activation (TRUPATH), dose-response point” value (NMU2 F316A; Log [agonist] M -4) was 89.6236 and 94.3509 and 81.0469 and 109.176, the “G protein activation (TRUPATH), dose-response point” value (NMU2 F316A; Log [agonist] M -5) was 58.7715 and 110.343 and 86.8329 and 108.262 and the “ΔpEC50 (from WT)” value (NMU2 F316A; individual experiments) was -1.816 and -2.03 and -0.9173 and -1.079. The EC50 (NMU2 F316A; read-out: EC50) was 1340 nM and the EC50 (NMU2 F316A; read-out: pEC50 mean±SEM (converted)) was 1350 nM.
